Key:
Assay type in all cases: in vivo
C57 male inbred mice = experiment: Fatty liver histologic score, mice on Western diet; settings: Western diet + BAFAC 150 mg/kg/day, 4 W
Experimental: The presence of fatty liver was evaluated by a pathologist unaware of the treatments, scoring coded slides in a blinded manner.
The scoring system was as follows:
C57 male inbred mice (Jackson Lab., Maine, USA) 4-6 weeks old weighing 20-25 gm were used. They were fed a “Western” diet (George et. al. Circulation 2000, 102:1822-27) containing cholesterol 1.5 gm/kg and Fat 42%, Carbohydrates 43%, and Protein 15% (as % of calories). Half were given in addition 150 mg/kg/day of 3β-arachidylamido-7α,12α-dihydroxy-5β-cholan-24-oic acid suspended in saline by intragastric gavage. The other half were similarly given saline only. After 4 weeks the animals were anesthetized and sacrificed. Liver and other organs were removed and placed in formaline prior to histologic examination

[1] = system: Golden Syrian Male Hamsters; experiment: Fasting blood glucose, hamsters on fatty liver diet (NIDDM model); settings: BAFAC 150 mg/kg/day by gavage, 3 weeks, vs saline
Experimental: The effects of BAFACs on fasting blood glucose were tested in 3 animal species: Hamsters, Rats and Mice. The animals were kept on regular or high fat diets (as specified). In each group half of the animals received a daily BAFAC dose (150 mg/kg) dispersed in 0.5 ml of saline by gavage. The other half received similarly, by gavage, an equal volume of saline only. All animals were kept on a 12 hr day/night cycle at 22° C. throughout the experiment. They had access to water ad libidum.
Golden Syrian male hamsters 4 weeks old (90-100 gm) were fed a fatty liver diet consisting of cholesterol (1%), palmitic acid (1.2%), butter (6%), lard (10%), and corn oil (2%) added (w/w) to their regular diet. Blood glucose was measured at sacrifice in the fasting state after 3 weeks of the trial. There were 5 control and 5 test animals.
The hamsters and rats on the high fat diets developed fatty liver (confirmed by chemical measurement of liver fat), a high fasting blood glucose, and represented models of NIDDM.
ICR male mice, 4 weeks old (approx. 20 gm) were fed a regular diet. Streptozotocin 200 mg/kg was injected i.p. on the first day of the experiment. (This induced damage to the islet cells of the pancreas and simulated IDDM). Fasting blood glucose was obtained from sacrificed animals after 16 days of the trial. There were 3 groups of 7 animals each. Controls—regular diet only. […]

human patients [2] = experiment: Human study: change in HOMA (insulin resistance); settings: for Change in HOMA from Baseline, Max / Change in HOMA from Baseline, Mean / Change in HOMA from Baseline, Median / Change in HOMA from Baseline, Min: 3 months
Experimental: (§1) The effects of BAFACs on disorders associated with Fatty liver, insulin resistance and altered glucose metabolism were tested on 60 human patients. Experiments were subdivided to 2 dosage regimens: Aramchol 300 mg daily (high dose) and 100 mg daily (low dose) respectively for a total period time of 3 months. The Aramchol:placebo ratio is of 2:1 for the low dose arm, and 1:1 for the high dose arms.
(§2) The study period included a 3 month treatment period with Aramchol low dose, or Aramchol high dose, or placebo, and a one month follow-up period. Aramchol was given daily orally. During the treatment period, all patients attended periodic […] (at first month) and subsequently monthly study-center visits in order to assess safety and efficacy of the treatment.
The results are shown using two known in the art principle statistical evaluation on, Intention-To-Treat (ITT) and Per Protocol (PP) populations. The ITT principle asserts that the effect of a treatment policy can be best assessed by evaluation on the basis of the intention to treat a subject (i.e. the planned treatment regimen) rather than the actual treatment given. It has the consequence that subjects allocated to a treatment group should be followed up, assessed and analyzed as members of that group irrespective of their compliance to the planned course of treatment. […] Compliance covers such considerations as exposure to treatment, availability of measurements and absence of major protocol violations.
Homeostatic model assessment (HOMA) is a method used to quantify insulin resistance and beta-cell function. The Dunnett method is used for multiple comparisons with a control group, and adjusts the data by age, gender, diagnosis, baseline HbA1c and baseline weight.

human patients [3] = experiment: Human study: safety; settings: Aramchol at 300 and 100 mg/d oral, 3 months, vs placebo
Experimental: as §1, §2
No changes in adverse events or in vital signs were observed between the groups.

CCCCCCCCCCCCCCCCCCCC(=O)N[C@H]1CC[C@@]2(C)[C@@H](C1)C[C@@H](O)[C@@H]1[C@@H]2C[C@H](O)[C@]2(C)[C@@H]([C@H](C)CCC(=O)O)CC[C@@H]12 [Aramchol, 3β-arachidylamido-7α,12α-dihydroxy-5β-cholan-24-oic acid]
Fatty Liver Scores: number of animals with score 0 (C57 male inbred mice; n 14, 0 - No fatty liver): 12 | Fatty Liver Scores: number of animals with score 1 (C57 male inbred mice; n 14, 1 - Minimal fatty liver): 1 | Fatty Liver Scores: number of animals with score 4 (C57 male inbred mice; n 14, 4 - Severe fatty liver): 1 | Fatty Liver Score, mean (C57 male inbred mice; score 0 (no fatty liver) to 4 (severe, >50% of liver surface)): 0.35 | fasting blood glucose [1]: markedly reduced | Change in HOMA from Baseline, Max (human patients [2]; Aramchol 100 mg/d oral, ITT): 11.70 | Change in HOMA from Baseline, Mean (human patients [2]; Aramchol 100 mg/d oral, ITT): 1.25 | Change in HOMA from Baseline, Median (human patients [2]; Aramchol 100 mg/d oral, ITT): 0.20 | Change in HOMA from Baseline, Min (human patients [2]; Aramchol 100 mg/d oral, ITT): −2.00 | Change in HOMA from Baseline, Max (human patients [2]; Aramchol 100 mg/d oral, PP): 11.70 | Change in HOMA from Baseline, Mean (human patients [2]; Aramchol 100 mg/d oral, PP): 1.13 | Change in HOMA from Baseline, Median (human patients [2]; Aramchol 100 mg/d oral, PP): 0.20 | Change in HOMA from Baseline, Min (human patients [2]; Aramchol 100 mg/d oral, PP): −2.00 | Change in HOMA from Baseline, Max (human patients [2]; Aramchol 300 mg/d oral, ITT): 2.80 | Change in HOMA from Baseline, Mean (human patients [2]; Aramchol 300 mg/d oral, ITT): −7.74 | Change in HOMA from Baseline, Median (human patients [2]; Aramchol 300 mg/d oral, ITT): 0.20 | Change in HOMA from Baseline, Min (human patients [2]; Aramchol 300 mg/d oral, ITT): −139.60 | Change in HOMA from Baseline, Max (human patients [2]; Aramchol 300 mg/d oral, PP): 2.80 | Change in HOMA from Baseline, Mean (human patients [2]; Aramchol 300 mg/d oral, PP): −7.74 | Change in HOMA from Baseline, Median (human patients [2]; Aramchol 300 mg/d oral, PP): 0.20 | Change in HOMA from Baseline, Min (human patients [2]; Aramchol 300 mg/d oral, PP): −139.60 | insulin resistance (in words) (human patients [2]; Aramchol 300 mg/d, tested subjects, Tables 3 and 4): reduces insulin resistance | Safety (adverse events, vital signs) (human patients [3]): not associated with any safety concerns
